SMILES strings stand for the structures.

With `CC(C)C1CC1`, the log10 OH rate constant (cm³/molecule/s) (25.0 °C) is -11.5.
The same measure, in the same setting: then `OCC(F)(F)F`, with -13; and `Brc1ccccc1`, with -12.1.
As for `COC(C)CCO` (stereo not given), the log10 OH rate constant (cm³/molecule/s) (25.0 °C) was -10.6.
Take `C/C=C/C=O`: the log10 OH rate constant (cm³/molecule/s) (25.0 °C) was -10.4.
Still for that read-out and setting: then `C1CCC2CCCCC2C1` (stereo not given), with -10.7; and `BrCCBr`, with -12.6.
Where the note is “25.0 °C”, `CCCS` returned a log10 OH rate constant (cm³/molecule/s) of -10.3.
The same measure, in the same setting: next, `CCC`: -11.9.
On to `C=COC`, for which the log10 OH rate constant (cm³/molecule/s) (26.0 °C) was -10.5.
For the setting “25.0 °C”, `C#C` came in with a log10 OH rate constant (cm³/molecule/s) of -12.1.
On to `CCSCC`, for which the log10 OH rate constant (cm³/molecule/s) (25.0 °C) was -10.8.
Under “25.0 °C”, `CCCOC(C)=O` returned a log10 OH rate constant (cm³/molecule/s) of -11.5.
Still for that read-out and setting: next, `C=CC(=C)CCC=C(C)C`: -9.67; `FC(F)(F)c1ccc(Cl)cc1`: -12.6.
Regarding `CCc1cccc(C)c1`, the log10 OH rate constant (cm³/molecule/s) (25.0 °C) was -10.7.
Same read-out and setting: next, `CCCCC(C)=O`: -11.
Still for that read-out and setting: then `CCOCOCC`, with -10.8; and `Cc1cccc([N+](=O)[O-])c1`, with -12.
Same read-out and setting: then `CS(C)=O`, with -10.2.
Where the note is “25.0 °C”, `c1ccc2occc2c1` had a log10 OH rate constant (cm³/molecule/s) of -10.4.
On the same count and under the same terms, next, `C=CCCCCC`: -10.4; `C#CCC`: -11.1.
Where the note is “25.0 °C”, `c1ccsc1` returned a log10 OH rate constant (cm³/molecule/s) of -11.
In turn, `CC(C)CC=O` came in with a log10 OH rate constant (cm³/molecule/s) (25.0 °C) of -10.6.
With `C=CCCl`, the log10 OH rate constant (cm³/molecule/s) (25.0 °C) was -10.8.
On the same count and under the same terms, then `OCc1ccccc1`, with -10.6; and `C=C(C)CCC(=C)C`, with -9.92.
With `c1ccoc1`, for the setting “25.0 °C”, the log10 OH rate constant (cm³/molecule/s) is -10.4.
As for `CC(C)=C=O`, under “25.0 °C”, the log10 OH rate constant (cm³/molecule/s) was -9.97.
`CC(C)=CC=C(C)C`: the log10 OH rate constant (cm³/molecule/s) (25.0 °C) was -9.68.
In the case of `COCCOCCOC`, the log10 OH rate constant (cm³/molecule/s) (25.0 °C) was -10.8.
Still for that read-out and setting: next, `c1ccc2ccccc2c1`: -10.7.
The same measure, in the same setting: then `C=CC(=C)C`, with -10; and `c1ccncc1`, with -12.4.
In the case of `CCN`, the log10 OH rate constant (cm³/molecule/s) (27.0 °C) was -10.6.
Under “25.0 °C”, `C=C(C)C=CC` showed a log10 OH rate constant (cm³/molecule/s) of -9.87.
`CC(C)(C)c1ccccc1` returned a log10 OH rate constant (cm³/molecule/s) (25.0 °C) of -11.3.
The compound `FC(F)(F)CCl` displayed a log10 OH rate constant (cm³/molecule/s) (25.0 °C) of -13.8.
Same read-out and setting: next, `CCCCCCCCCC`: -10.9.
For the setting “25.0 °C”, `c1ccc(-c2ccccc2)cc1` showed a log10 OH rate constant (cm³/molecule/s) of -11.1.
Still for that read-out and setting: next, `Oc1ccc(Cl)cc1Cl`: -12.
On the same count and under the same terms, next, `FC(F)(Cl)Cl`: less than -15.4; `FC(F)=C(Cl)Cl`: -11.1.
In the case of `ClCc1ccccc1`, the log10 OH rate constant (cm³/molecule/s) (25.0 °C) was -11.5.
The compound `CCC(=O)OC` showed a log10 OH rate constant (cm³/molecule/s) (25.0 °C) of -12.
Turning to `COO`, the log10 OH rate constant (cm³/molecule/s) (25.0 °C) is -11.3.
Take `C1CCSC1`: under “25.0 °C”, the log10 OH rate constant (cm³/molecule/s) was -10.7.
The same measure, in the same setting: next, `CN(C)c1ccccc1`: -9.83.
For `Cc1ccoc1`, the log10 OH rate constant (cm³/molecule/s) (25.0 °C) is -10.
Still for that read-out and setting: next, `C=C(C)C=O`: -10.5; `C1=CC=CCC=C1`: -10.
For the setting “25.0 °C”, `CCCCCC` showed a log10 OH rate constant (cm³/molecule/s) of -11.3.
Same read-out and setting: then `CCCC(=O)CC`, with -11.2; and `COC(C)(C)OC`, with -11.4; and `CCC(C)S` (stereo not given), with -10.4.
`FC(F)(Cl)Br`: where the note is “25.0 °C”, the log10 OH rate constant (cm³/molecule/s) was less than -15.
Compound `CCO` displayed a log10 OH rate constant (cm³/molecule/s) (25.0 °C) of -11.5.
Still for that read-out and setting: then `CC=C=O`, with -10.2.
Under “25.0 °C”, `CC(F)(F)F` returned a log10 OH rate constant (cm³/molecule/s) of -14.8.
The same measure, in the same setting: next, `N#Cc1ccccc1`: -12.5; `C1COCOC1`: -11.
Still for that read-out and setting: then `CCC(C)=O`, with -11.9; and `CC1CO1` (stereo not given), with -12.3.
For the compound `Cc1ccccc1[N+](=O)[O-]`, the log10 OH rate constant (cm³/molecule/s) (25.0 °C) was -12.2.
`CCF` showed a log10 OH rate constant (cm³/molecule/s) (25.0 °C) of -12.6.
On to `CCOC=O`, for which the log10 OH rate constant (cm³/molecule/s) (25.0 °C) is -12.
Compound `C1=CCCCC=C1` came in with a log10 OH rate constant (cm³/molecule/s) (25.0 °C) of -9.86.
Still for that read-out and setting: then `CNN`, with -10.2.
Take `CC(C)CC(C)(C)C`: under “25.0 °C”, the log10 OH rate constant (cm³/molecule/s) was -11.4.
On the same count and under the same terms, then `c1ccc2c(c1)CCO2`, with -10.4.
The same measure, in the same setting: next, `CC(C)=C(C)C`: -9.96; `O=C1CCCCC1`: -11.2; `CCCCC(C)O` (stereo not given): -10.9.
On the same count and under the same terms, then `COP(=S)(OC)SC`, with -10.3.
In turn, `CCOC(C)(C)OCC` showed a log10 OH rate constant (cm³/molecule/s) (25.0 °C) of -10.9.
Still for that read-out and setting: next, `C=CC=CC=C`: -10.3.
Take `CC(C)(C)C(C)(C)C`: the log10 OH rate constant (cm³/molecule/s) (25.0 °C) is -12.
The same measure, in the same setting: next, `CCC(=O)CC`: -11.7; `C1CCCOCC1`: -10.8; `CC(=O)C(F)(F)F`: -13.8.
Same read-out and setting: then `CBr`, with -13.4; and `C=CBr`, with -11.2.
On the same count and under the same terms, next, `CC(C)C(=O)C(C)C`: -11.3; `CCC(C)OC(C)=O` (stereo not given): -11.3.
Regarding `Cc1cccc2ccccc12`, for the setting “25.0 °C”, the log10 OH rate constant (cm³/molecule/s) is -10.3.
Compound `c1cscn1` came in with a log10 OH rate constant (cm³/molecule/s) (24.0 °C) of -11.9.
For the compound `CC(C)(C)O`, under “25.0 °C”, the log10 OH rate constant (cm³/molecule/s) is -12.
`Nc1ccc(Cc2ccc(N)cc2)cc1` had a log10 OH rate constant (cm³/molecule/s) (25.0 °C) of -10.5.
The same measure, in the same setting: then `C=C/C=C\C`, with -9.99; and `CC(=O)CO`, with -11.5.
For the setting “25.0 °C”, `CCCCOC(=O)CCC` displayed a log10 OH rate constant (cm³/molecule/s) of -11.
As to `CC(C)(N)CO`, the log10 OH rate constant (cm³/molecule/s) (25.0 °C) is -10.6.
Still for that read-out and setting: next, `CC(C)CS`: -10.3; `O=CCCCC=O`: -10.6; `COC(C)OC`: -11.1.
In turn, `Nc1ccc(Cl)cc1` came in with a log10 OH rate constant (cm³/molecule/s) (25.0 °C) of -10.4.
On to `Clc1ccc(Cl)cc1`, for which the log10 OH rate constant (cm³/molecule/s) (25.0 °C) is -12.5.
Regarding `FCCF`, where the note is “25.0 °C”, the log10 OH rate constant (cm³/molecule/s) is -13.
On the same count and under the same terms, next, `CCCCCCC`: -11.1.
Still for that read-out and setting: then `c1ccc2c(c1)Cc1ccccc1-2`, with -10.9.
Still for that read-out and setting: next, `c1ccc2c(c1)CCCC2`: -10.5.
`Cc1ccc(C)c(C)c1`: the log10 OH rate constant (cm³/molecule/s) (25.0 °C) is -10.5.
On the same count and under the same terms, next, `CC(C)CC(C)C`: -11.3.
For the setting “22.0 °C”, `C=C=C` had a log10 OH rate constant (cm³/molecule/s) of -11.
Regarding `ClC(Cl)=C(Cl)Cl`, the log10 OH rate constant (cm³/molecule/s) (25.0 °C) is -12.8.
Under “25.0 °C”, `C1COCCO1` showed a log10 OH rate constant (cm³/molecule/s) of -11.
Under “25.0 °C”, `CCC(=O)O` showed a log10 OH rate constant (cm³/molecule/s) of -11.9.
Still for that read-out and setting: next, `CCCCCCCCCCCCCCCC`: -10.6.
On the same count and under the same terms, then `CC(=O)CCC(C)=O`, with -11.1; and `CC1=CCC(C(C)C)=CC1`, with -9.75.
`CCCCC` displayed a log10 OH rate constant (cm³/molecule/s) (25.0 °C) of -11.4.
For the compound `CCC(C)CC`, for the setting “25.0 °C”, the log10 OH rate constant (cm³/molecule/s) was -11.2.
In turn, `CN(C)C` yielded a log10 OH rate constant (cm³/molecule/s) (25.0 °C) of -10.2.
The same measure, in the same setting: then `CCCCCCCCC(C)=O`, with -10.9.
The same measure, in the same setting: then `CC1=CC[C@@H](C(C)C)CC1`, with -9.9; and `CC(=O)O`, with -12.1.
Turning to `CCN(O)CC`, the log10 OH rate constant (cm³/molecule/s) (25.0 °C) is -10.
Still for that read-out and setting: next, `COCCC(OC)OC`: -10.7; `CC(=O)C(C)=O`: -12.6; `CC(=O)CC(C)=O`: -11.9.
Still for that read-out and setting: next, `C#CC`: -11.2; `FC(F)Cl`: -14.3; `C=CC=O`: -10.7.
On the same count and under the same terms, then `Ic1ccccc1`, with -12.
In turn, `COC(C)=O` gave a log10 OH rate constant (cm³/molecule/s) (23.0 °C) of -12.5.
Under “21.0 °C”, `CC1=CC=C(C(C)C)CC1` yielded a log10 OH rate constant (cm³/molecule/s) of -9.44.
The compound `O=[N+]([O-])c1ccccc1O` displayed a log10 OH rate constant (cm³/molecule/s) (25.0 °C) of -12.
Turning to `CC(C)c1ccccc1`, under “25.0 °C”, the log10 OH rate constant (cm³/molecule/s) was -11.2.
Same read-out and setting: then `C=C1CCC2CC1C2(C)C` (stereo not given), with -10.1; and `CCOCCOCCOCC`, with -10.6; and `CCC(C)CS` (stereo not given), with -10.3.
The same measure, in the same setting: then `Clc1cccc(Cl)c1`, with -12.1; and `C#CCCC`, with -11; and `OC1CCCC1`, with -11.
